Data taken from US9637795B2, “Methods and compositions for predicting response to eribulin” (Eisai R&D Management Co., Ltd., priority 2011, dated 2017).
Structures can show the parent of a compound that is named as a salt.

Experiments:
[1] = test system: BT-549 cells; test: IC20 of E7389 for BT-549 cells; type: cell-based; details: Homo sapiens
[2] = test system: MDA-MB-231; test: IC20 of E7389 for the cell line tested (MDA-MB-231); type: cell-based; details: Homo sapiens
Description: Transfection conditions for human breast cancer cell lines MDA-MB-231 (ATCC Catalog No. HTB26™) and BT-549 (ATCC Catalog No. HTB122™) were optimized using transfection reagent DharmaFect 1 from Dharmacon. The MDA-MB-231 and BT-549 cell lines have been reported to be Estrogen Receptor (ER) negative, Progesterone Receptor (PR) negative and HER-2 negative (triple negative). As a non-targeting negative control we used Silencer Negative Control #1 siRNA from Applied Biosystems. The siGENOME TOX (siTOX) Transfection Control (Dharmacon), an RNA duplex designed to induce cell death, was used as a positive control for cell proliferation assays. A reverse transfection procedure in which siRNA was first mixed with transfection reagent and then cells were added to the well, was used in all experiments. Cell viability was compared in cells treated with medium, negative control siRNA and siTOX reagent combined with different amount of DharmaFect 1. […]
The whole human genome siRNA library was purchased from Dharmacon. […] Cell viability was determined at 96 hours after transfection by CellTiter-Glo luminescent assay from Promega. […] Plates were mixed for 2 minutes on a horizontal shaker, incubated for 10 minutes and read on an EnVision® multilabel plate reader from PerkinElmer.

With `C=C1C[C@@H]2CC[C@@]34C[C@H]5O[C@H]6C(O3)[C@H]3OC(CC[C@@H]3O[C@H]6[C@H]5O4)CC(=O)C[C@@H]3[C@@H](OC)[C@@H](C[C@H](O)CN)O[C@H]3CC3O[C@@H](CCC1O2)C[C@@H](C)C3=C` [E7389, 11,15:18,21:24,28-Triepoxy-7,9-ethano-12,15-methano-9H,15H-furo[3,2-i]furo[2′,3′:5,6]pyrano[4,3-b][1,4]dioxacyclopentacosin-5(4H)-one, 2-[(2S)-3-amino-2-hydroxypropyl]hexacosahydro-3-methoxy-26-methyl-20,27-bis(methylene)-, (2R,3R,3aS,7R,8aS,9S,10aR,11S,12R,13aR,13bS,15S,18S,21S,24S,26R,28R,29aS)-methanesulfonate (salt)] the IC20 [1] was 0.25 nM and the IC20 [2] was 0.75 nM.
